Test results published in patent US12503452B2 (Curza Global, LLC, priority 2019, dated 2025).
Counter-ions that a name gives are not always drawn. Like-named read-outs stand apart in the source and are kept apart here.

Assays:
[1] = tested on: E. coli S30 extract (bacterial protein synthesis); assay: E. coli S30 extract coupled transcription-translation luciferase assay (inhibition of bacterial protein synthesis); assay type: biochemical; conditions: read-out: S30 IC50 (μM/% inhib.)
Protocol: E. coli S30 extract: Inhibition of bacterial protein synthesis was determined using the E. coli S30 Extract System for Circular DNA (Promega catalog #L-2010) and Luciferase Assay Reagent (Promega catalog #E1500) with slight modifications to a published protocol. Fyfe, C., Sutcliffe, J. A. and Grossman, T. H. (2012) “Development and characterization of a Pseudomonas aeruginosa in vitro coupled transcription-translation assay system for evaluation of translation inhibitors” J. Microbiol. Methods 90(3), 256-261.
Compounds were serial diluted in 0.5 mL microcentrifuge tubes by mixing and transferring 50 μL from the highest concentration to 50 μL of water, mixing and transferring 50 μL of this 2-fold dilution to 50 μL of water. This mixing and transferring was repeated so that there are a total of 8 tubes with serial dilutions of compound at 10× the desired screening concentration that are ultimately diluted to 1× by the addition of S30 luciferase synthesis mixture. Serial dilutions of compounds were added (2 μL) to wells in a black round bottom 96-well plate. Water (2 μL) was used as a “no inhibitor” control in 4 wells/plate. No DNA control reaction mixture (20 μL; see below) was used as a control in 4 wells/plate for background luminescence. S30 luciferase synthesis mixture (18 μL; see below) was added to wells with compounds or water mixture and incubated at 37° C. for 1 hour. Reactions were stopped by transferring to 4° C. refrigerator for 5 minutes then 25 μL of luciferase activity mix was added. Luminescence was measured using a BioTek Synergy HTX plate reader. % Inhibition was determined relative to no inhibitor controls.
S30 luciferase synthesis mixture:
• 445 μL S30 extract, circular • 712 μL S30 Premix without amino acids • 4.45 μL pBESTluc™ DNA (1 μg/μL) • 78 μL complete amino acid mixture • 267 μL water No DNA control: • 20 μL S30 extract, circular • 32 μL S30 Premix without amino acids • 7 μL complete amino acid mixture • 21 μL water Rabbit Reticulocyte lysate

[2] = target: Rabbit Reticulocyte Lysate (eukaryotic protein synthesis); assay: Rabbit reticulocyte lysate luciferase assay (inhibition of eukaryotic protein synthesis); assay type: biochemical; conditions: read-out: Rabbit reticulocyte IC50 (μM/% inhib.)
Protocol: Inhibition of eukaryotic protein synthesis was determined using the Rabbit Reticulocyte Lysate System, Nuclease-Treated from Promega (catalog #L-4960) with slight modifications to the manufacturer's protocol. Compounds were serial diluted in 0.5 mL microcentrifuge tubes by mixing and transferring 50 μL from the highest concentration to 50 μL of water, mixing and transferring 50 μL of this 2-fold dilution to 50 μL of water. This mixing and transferring was repeated so that there are a total of 8 tubes with serial dilutions of compound at 10× the desired screening concentration that are ultimately diluted to 1× by the addition of rabbit reticulocyte luciferase synthesis mixture. Serial dilutions of compounds were added ([…]) to wells in a black round bottom 96-well plate. Water (2.5 μL) was used as a “no inhibitor” control in 4 wells/plate. No RNA control reaction mixture ([…]; see below) was used as a control in 4 wells/plate for background luminescence. Rabbit reticulocyte luciferase synthesis mixture (22.5 μL; see below) was added to wells with compounds or water mixture and incubated at 30° C. for 90 minutes. Luciferase assay reagent (25 μL) was added with luminescence measured using a BioTek Synergy HTX plate reader. % Inhibition was determined relative to no inhibitor controls.
Rabbit reticulocyte luciferase synthesis mixture:
• 1,000 μL rabbit reticulocyte lysate • 5.7 μL Luciferase Control RNA (1 μg/μL) • 26 μL complete amino acid mixture • 395 μL water No RNA Control • 70 μL rabbit reticulocyte lysate • 2 μL complete amino acid mixture • 28 μL water Minimum Inhibitory Concentration (MIC)

E. coli (Ec) = assay: Broth microdilution minimum inhibitory concentration (MIC); assay type: cell-based; conditions: Escherichia coli, E. coli, read-out: E. coli + bicarb MIC
Protocol: A certified BSL-2 laboratory was used for testing. Compounds were evaluated using the broth microdilution minimum inhibitory concentration (MIC) and minimum bactericidal concentration (MBC) assays defined by Clinical and Laboratory Standards Institute (CLSI) in the M26-A guideline against S. aureus (Sa), E. coli (Ec), K. pneumoniae (Kp), A. baumannii (Ab), E. faecalis (Ef) and P. aeruginosa (Pa).
MICs were determined using the Clinical Laboratory and Standards Institute (CLSI) Broth Microdilution Method with slight modification. Clinical and Laboratory Standards Institute (2012). “Methods for dilution antimicrobial susceptibility tests for bacteria that grow aerobically; approved standard, 9th ed. M07-A9. Clinical and Laboratory Standards Institute, Wayne, PA” Serial two-fold dilutions of compounds are prepared in sterile clear round-bottom 96-well plates.
To prepare microdilution trays, two-fold dilutions of antimicrobial agent are prepared in growth medium: Cation-Adjusted Mueller-Hinton Broth (CAMHB), or CAMHB supplemented with sodium bicarbonate (6.25 or 25 mM final concentration prepared from a 1.0M stock solution) or CAMHB supplemented with heat inactivated human serum (Fisher Cat. #BP2657100) 0-50% by adding 200 μL of the highest concentration to be tested (64 μg/mL, for example) in row A, mixing and transferring 100 μL from row A to 100 μL growth medium in row B, then repeating the mixing and transferring through row H of the 96-well plate, discarding the excess 100 μL remaining. This slight modification to the CLSI protocol enables evaluation of MICs for 3 compounds per plate in triplicate, albeit with only 8 compound dilutions (CLSI protocol enables 2 compounds in triplicate with 10 dilutions). Bacterial suspensions are added to a final concentration of 5×10^4 CFU/well by adding 5 μL of a 1:10 dilution of a 0.5 McFarland suspension (1×10^8 CFU/mL) for each bacterium evaluated. Bacterial suspensions were prepared using the growth method described by CLSI. Well-isolated colonies (3-5 from an agar plate) were selected using a sterile loop and used to inoculate a tube containing 4 mL of CAMHB. The cultures are incubated at 35±2° C. until it achieves or exceeds the turbidity of the 0.5 McFarland standard, determined by measuring A600nm (usually two to six hours). When growth exceeds a 0.5 McFarland standard, the turbidity is adjusted with broth to be equivalent to a 0.5 McFarland standard.

[3] = class by IC50 or % inhibition @ 1 μM
[4] = growth medium supplemented with sodium bicarbonate
[5] = growth medium with sodium bicarbonate

CC(C)(N)C(=O)N1CCCC2C1CCCN2C(=O)Nc1ccn(-c2ccc(CN3CCC(N)CC3)cc2)c(=O)n1 (centres unmarked) [Compound 86]
IC50 [1, 3]: > 1 µM
IC50 [2, 3]: > 1 µM

CC(C)(N)C(=O)N1CC2CCC1CN2C(=O)Nc1ccn(-c2ccc(CN3CCC(N)CC3)cc2)c(=O)n1 (centres unmarked) [Compound 87]
IC50 [1, 3]: > 1 µM
IC50 [2, 3]: > 1 µM

C[C@@H]1CN(C(=O)C(C)(C)N)[C@H](C)CN1C(=O)Nc1ccn(-c2ccc(CN3CCC(N)CC3)cc2)c(=O)n1 [Compound 88]
IC50 [1, 3]: > 1 µM
IC50 [2, 3]: > 1 µM

CCOC(=O)C(c1ccc(-n2ccc(NC(=O)N3CCN(C(=O)C(C)(C)N)CC3)nc2=O)cc1)N1CCC(N)CC1 (centres unmarked) [Compound 92]
MIC (E. coli (Ec); [4]): > 32 µg/mL
IC50 [1, 3]: > 1 µM

CC(C)(N)C(=O)N1CCN(C(=O)Nc2ccn(-c3ccc(C(C(=O)O)N4CCC(N)CC4)cc3)c(=O)n2)CC1 (centres unmarked) [Compound 93]
MIC (E. coli (Ec); [4]): > 32 µg/mL
IC50 [1, 3]: > 1 µM

Cc1cc(-n2ccc(NC(=O)N3CCN(C(=O)CC(C)(C)N)CC3)nc2=O)ccc1CN1CCC(N)CC1 [Compound 94]
IC50 [1, 3]: > 1 µM
IC50 [2, 3]: > 1 µM

C[C@](N)(CO)C(=O)N1CCN(C(=O)Nc2ccn(-c3ccc(CN4CCC(N)CC4)cc3)c(=O)n2)CC1 [Compound 97]
MIC (E. coli (Ec); [4]): 8 to 32 µg/mL
IC50 [1, 3]: < 0.5 µM
IC50 [2, 3]: > 1 µM

C[C@H](N)C(=O)NC1CCN(Cc2ccc(-n3ccc(NC(=O)N4CCN(C(=O)[C@@](C)(N)CO)CC4)nc3=O)cc2)CC1 [Compound 100]
IC50 [1, 3]: 0.5 to 1 µM
IC50 [2, 3]: > 1 µM

Cc1cc(-n2ccc(NC(=O)N3CCN(C(=O)C(C)(N)CO)CC3)nc2=O)ccc1CN1CCC(N)CC1 (centres unmarked) [Compound 101]
IC50 [1, 3]: 0.5 to 1 µM
IC50 [2, 3]: > 1 µM

CC(C)(N)C(=O)N1CCN(C(=O)Nc2ccn(-c3cccc(CN4CCC(NC(=N)N)CC4)c3)c(=O)n2)CC1 [Compound 102]
IC50 [1, 3]: > 1 µM
IC50 [2, 3]: > 1 µM

Cc1cc(-n2ccc(NC(=O)N3CCN(C(=O)C(C)(C)N)CC3)nc2=O)ccc1CN1CCC(NC(=N)N)CC1 [Compound 104]
IC50 [1, 3]: < 0.5 µM
IC50 [2, 3]: > 1 µM

CC(C)(N)C(=O)N1CCN(C(=O)Nc2ccn(-c3ccc(CN4CCC(NC(=N)N)CC4)cc3)c(=O)n2)CC1 [Compound 105]
IC50 [1, 3]: < 0.5 µM
IC50 [2, 3]: < 0.5 µM

CC(C)(N)CC(=O)N1CCN(C(=O)Nc2ccn(-c3ccc(CN4CCC(N)CC4)c(C(F)(F)F)c3)c(=O)n2)CC1 [Compound 106]
IC50 [1, 3]: > 1 µM
IC50 [2, 3]: > 1 µM

CC(C)(N)C(=O)N1CCN(C(=O)Nc2ccn(-c3ccc(CN4CCC(C(F)(F)F)CC4)cc3)c(=O)n2)CC1 [Compound 107]
IC50 [1, 3]: > 1 µM
IC50 [2, 3]: > 1 µM

CC(C)(N)C(=O)N1CCN(C(=O)Nc2ccn(-c3ccc(CN4CCOC(CN)C4)cc3)c(=O)n2)CC1 (centres unmarked) [Compound 135]
IC50 [1, 3]: > 1 µM
IC50 [2, 3]: > 1 µM

CC(C)(N)C(=O)N1CCN(C(=O)Nc2ccn(-c3ccc(CC[N+]4(C)CCC(N)CC4)cc3)c(=O)n2)CC1 (centres unmarked) [Compound 196]
IC50 [1, 3]: < 0.5 µM
IC50 [2, 3]: > 1 µM

C[C@H](N)C1CCN(Cc2ccc(-n3ccc(NC(=O)N4CCN(C(=O)C(C)(C)N)[C@H](C)C4)nc3=O)cc2)CC1 [Compound 206]
IC50 [1, 3]: > 1 µM
IC50 [2, 3]: > 1 µM

C[C@H](N)C1CCN(Cc2ccc(-n3ccc(NC(=O)N4CCN(C(=O)[C@@](C)(N)CO)C[C@H]4C)nc3=O)cc2)CC1 [Compound 207]
IC50 [1, 3]: > 1 µM
IC50 [2, 3]: > 1 µM

CC(C)(N)C(=O)N1CCN(C(=O)Nc2ccn(-c3ccc(CN4CC[C@@H](N)[C@H](F)C4)cc3)c(=O)n2)CC1 [Compound 208]
MIC (E. coli (Ec); [5]): 8 to 32 µg/mL
IC50 [1, 3]: > 1 µM

CN(C)C1CCN(Cc2ccc(-n3ccc(NC(=O)N4CCN(C(=O)C(C)(C)N)CC4)nc3=O)cc2)CC1 [Compound 214]
MIC (E. coli (Ec); [5]): < 8 µg/mL
IC50 [1, 3]: < 0.5 µM

CC(C)(N)C(=O)N1CCN(C(=O)Nc2ccn(-c3ccc(CN4CCC(O)(CN)CC4)cc3)c(=O)n2)CC1 [Compound 215]
MIC (E. coli (Ec); [5]): < 8 µg/mL
IC50 [1, 3]: < 0.5 µM

CO[C@@H]1CN(Cc2ccc(-n3ccc(NC(=O)N4CCN(C(=O)C(C)(C)N)CC4)nc3=O)cc2)CC[C@H]1N [Compound 216]
MIC (E. coli (Ec); [5]): 8 to 32 µg/mL
IC50 [1, 3]: > 1 µM

CC(C)(N)C(=O)N1CCN(C(=O)Nc2ccn(-c3ccc(CN4CCC(CCN)CC4)cc3)c(=O)n2)CC1 [Compound 218]
MIC (E. coli (Ec); [5]): < 8 µg/mL
IC50 [1, 3]: < 0.5 µM
IC50 [2, 3]: > 1 µM

C[C@H](N)C1CCN(Cc2ccc(-n3ccc(NC(=O)N4CCN(C(=O)[C@@](C)(N)CO)CC4)nc3=O)cc2)CC1 [Compound 221]
MIC (E. coli (Ec); [5]): < 8 µg/mL
IC50 [1, 3]: < 0.5 µM
IC50 [2, 3]: > 1 µM

CC(C)(N)C(=O)N1CCN(Cc2ccc(-n3ccc(NC(=O)N4CCN(C(=O)C(C)(C)N)CC4)nc3=O)cc2)CC1 [Compound 225]
IC50 [1, 3]: > 1 µM
IC50 [2, 3]: > 1 µM

CC1(N)CCN(Cc2ccc(-n3ccc(NC(=O)N4CCN(C(=O)[C@@](C)(N)CO)CC4)nc3=O)cc2Cl)CC1 [Compound 360]
IC50 ([1]; % inhibition @ 1 μM): < 0.5 µM
IC50 ([2]; % inhibition @ 1 μM): > 1 µM

CC(C)(N)CC(=O)N1CCN(C(=O)Nc2ccn(-c3cccc(CN4CCC(N)CC4)c3)c(=O)n2)CC1 [Compound 362]
IC50 ([1]; % inhibition @ 1 μM): > 1 µM
IC50 ([2]; % inhibition @ 1 μM): > 1 µM

CC(C)(N)CC(=O)N1CCN(C(=O)Nc2ccn(-c3cccc(CN4CCC(C)(N)CC4)c3)c(=O)n2)CC1 [Compound 363, hydrochloride salt]
IC50 ([1]; % inhibition @ 1 μM): > 1 µM
IC50 ([2]; % inhibition @ 1 μM): > 1 µM

CC(C)[C@H](N)C(=O)NC(C)(C)C(=O)N1CCN(C(=O)Nc2ccn(-c3ccc(CN4CCC(N)CC4)cc3)c(=O)n2)CC1 [Compound 364, hydrochloride salt]
IC50 ([1]; % inhibition @ 1 μM): < 0.5 µM
IC50 ([2]; % inhibition @ 1 μM): > 1 µM

CC(C)(N)C(=O)N1CCN(C(=O)Nc2ccn(-c3ccc(CN4CC(CCN)(C(=O)O)C4)cc3)c(=O)n2)CC1 [Compound 369, hydrochloride salt]
IC50 ([1]; % inhibition @ 1 μM): > 1 µM
IC50 ([2]; % inhibition @ 1 μM): > 1 µM

CC(C)(N)C(=O)N1CCN(C(=O)Nc2ccn(-c3ccc(CN4CCC(F)(F)CC4)cc3)c(=O)n2)CC1 [Compound 383]
IC50 ([1]; % inhibition @ 1 μM): > 1 µM
IC50 ([2]; % inhibition @ 1 μM): > 1 µM
